Measurements published in patent US20070249725A1, “Pharmaceutical formulations of sympathetic antagonist for the treatment of chronic muscle pain” (priority 2006, published 2007).
Counter-ions that a name gives are not always drawn.

Tests used:
[1] = test system: active trigger points; test: Multicenter, randomized, placebo-controlled, double-blind dose response study of intramuscular PBZ: efficacy (Example II); type: in vivo, human
Method: (§1) This was a multicenter, randomized, placebo-controlled, double-blind, dose response study of intramuscular phenoxybenzamine hydrochloride (PBZ) versus vehicle and saline placebos. Phenoxybenzamine formulation known in the art (propylene glycol and alcohol) and diluted in saline at the time of injection were evaluated. […] Patients with pain in the most commonly affected regions, the upper and lower back, were studied. Patients enrolled in this study were male or female with 4 months to 8 years of myofascial pain syndrome with identifiable active trigger points. Patients were required to have had EMG documented triggers points and meet the criteria of <10 uV in the adjacent muscle site and have a minimum of a 2:1 ratio of trigger point amplitude: adjacent amplitude. Attempts were made to obtain maximum amplitude in the trigger point.
(§2) The primary objectives of this study were to evaluate the safety, tolerance, and efficacy of 4 doses (0.1, 0.3, 1.0, or 2.4 mg) of phenoxybenzamine per intramuscular injection site. The vehicle placebo group received vehicle in a concentration equivalent to the active doses. A second placebo was saline. All injections were of 0.3 ml in volume. Up to 10 trigger points were injected at each treatment session. There were up to 2 treatment sessions up to 10 days apart. The primary efficacy evaluation was made at week 12 of treatment. The Visual Analogue Pain Scale (VAS) was used to assess pain in the affected region before and after treatment. Secondary efficacy assessments included the McGill Pain Questionnaire (MPQ), the Spinal Function Sort (SFS) and the SF-36 Quality of Life questionnaire.

[2] = Multicenter placebo-controlled dose response study of intramuscular PBZ: safety and tolerance (Example II); type: in vivo, human
Method: as §1, §2
Thirty-two of the 79 patients (41%) in the saline placebo group, 33 of 83 patients (40%) in the vehicle placebo group, 35 of the 86 patients (41%) in the 1 mg group, and 37 of the 81 patients (46%) in the 2.4 mg group experienced 1 or more treatment-emergent adverse experiences. For all treatment groups combined, the most common adverse experiences observed were dizziness: 8%; pain 5%; nausea: 3%, and sweating: 3%. […] The most frequent adverse experiences were dizziness (8%) and pain (5%), followed by headache, sweating, and nausea (3% each).

[3] = pH of phenoxybenzamine formulations; type: physicochemical; conditions: active solutions
Method: as §1
For determination of the pH value of the active solutions, a 5% solution of the Phenoxybenzamine HCL measured 3.25. Examples of packaging material include 2-mL vials, Pharmatek Lot No. 0001, Part No. PTC-0001; rubber stoppers, Pharmatek Lot No. 0002, Part No. PTC-0002; Truedge® seals, Pharmatek Lot No. 0003, Part No. PTC-0003; Supor® filters, Pharmatek Lot No. 0005, Part No. PTC-0004; and labels, to be generated by PrimaPharm Inc. These can be supplied in the form of a kit.

[4] = 1 mg PBZ per injection site, 86 patients

CC(COc1ccccc1)N(CCCl)Cc1ccccc1 (stereo not shown) [Phenoxybenzamine Hydrochloride, phenoxybenzamine hydrochloride]
efficacy of formulations in this study ([1]; 1.0 mg and 2.4 mg in propylene glycol and alcohol composition): ineffective
difference in percent change from baseline between placebo and active drug ([1]; 1.0 mg group, not statistically significant): 9.9%
efficacy compared with placebo ([1]; 2.4 mg group): equivalent to placebo
Dizziness, % of patients ([2]; 0.1 mg PBZ per injection site): 5%
Dizziness, number of patients ([2]; 0.1 mg PBZ per injection site): 1
Ecchymosis, % of patients ([2]; 0.1 mg PBZ per injection site): 0 (0%)
Ecchymosis, number of patients ([2]; 0.1 mg PBZ per injection site): 0 (0%)
Flu syndrome, % of patients ([2]; 0.1 mg PBZ per injection site): 0 (0%)
Flu syndrome, number of patients ([2]; 0.1 mg PBZ per injection site): 0 (0%)
Headache, % of patients ([2]; 0.1 mg PBZ per injection site): 0 (0%)
Headache, number of patients ([2]; 0.1 mg PBZ per injection site): 0 (0%)
Hypotension, % of patients ([2]; 0.1 mg PBZ per injection site): 0 (0%)
Hypotension, number of patients ([2]; 0.1 mg PBZ per injection site): 0 (0%)
Infection, % of patients ([2]; 0.1 mg PBZ per injection site): 0 (0%)
Infection, number of patients ([2]; 0.1 mg PBZ per injection site): 0 (0%)
Injection site edema, % of patients ([2]; 0.1 mg PBZ per injection site): 0 (0%)
Injection site edema, number of patients ([2]; 0.1 mg PBZ per injection site): 0 (0%)
Nausea, % of patients ([2]; 0.1 mg PBZ per injection site): 0 (0%)
Nausea, number of patients ([2]; 0.1 mg PBZ per injection site): 0 (0%)
Pain, % of patients ([2]; 0.1 mg PBZ per injection site): 5%
Pain, number of patients ([2]; 0.1 mg PBZ per injection site): 1
Sweating, % of patients ([2]; 0.1 mg PBZ per injection site): 0 (0%)
Sweating, number of patients ([2]; 0.1 mg PBZ per injection site): 0 (0%)
Syncope, % of patients ([2]; 0.1 mg PBZ per injection site): 0 (0%)
Syncope, number of patients ([2]; 0.1 mg PBZ per injection site): 0 (0%)
TOTAL NUMBER OF PATIENTS reporting treatment-emergent adverse experiences, % of patients ([2]; 0.1 mg PBZ per injection site): (33%)
TOTAL NUMBER OF PATIENTS reporting treatment-emergent adverse experiences, number ([2]; 0.1 mg PBZ per injection site): 7
Dizziness, % of patients ([2]; 0.3 mg PBZ per injection site): 0 (0%)
Dizziness, number of patients ([2]; 0.3 mg PBZ per injection site): 0 (0%)
Ecchymosis, % of patients ([2]; 0.3 mg PBZ per injection site): 0 (0%)
Ecchymosis, number of patients ([2]; 0.3 mg PBZ per injection site): 0 (0%)
Flu syndrome, % of patients ([2]; 0.3 mg PBZ per injection site): 5%
Flu syndrome, number of patients ([2]; 0.3 mg PBZ per injection site): 1
Headache, % of patients ([2]; 0.3 mg PBZ per injection site): 5%
Headache, number of patients ([2]; 0.3 mg PBZ per injection site): 1
Hypotension, % of patients ([2]; 0.3 mg PBZ per injection site): 0 (0%)
Hypotension, number of patients ([2]; 0.3 mg PBZ per injection site): 0 (0%)
Infection, % of patients ([2]; 0.3 mg PBZ per injection site): 5%
Infection, number of patients ([2]; 0.3 mg PBZ per injection site): 1
Injection site edema, % of patients ([2]; 0.3 mg PBZ per injection site): 0 (0%)
Injection site edema, number of patients ([2]; 0.3 mg PBZ per injection site): 0 (0%)
Nausea, % of patients ([2]; 0.3 mg PBZ per injection site): 5%
Nausea, number of patients ([2]; 0.3 mg PBZ per injection site): 1
Pain, % of patients ([2]; 0.3 mg PBZ per injection site): 0 (0%)
Pain, number of patients ([2]; 0.3 mg PBZ per injection site): 0 (0%)
Sweating, % of patients ([2]; 0.3 mg PBZ per injection site): 0 (0%)
Sweating, number of patients ([2]; 0.3 mg PBZ per injection site): 0 (0%)
Syncope, % of patients ([2]; 0.3 mg PBZ per injection site): 0 (0%)
Syncope, number of patients ([2]; 0.3 mg PBZ per injection site): 0 (0%)
TOTAL NUMBER OF PATIENTS reporting treatment-emergent adverse experiences, % of patients ([2]; 0.3 mg PBZ per injection site): (23%)
TOTAL NUMBER OF PATIENTS reporting treatment-emergent adverse experiences, number ([2]; 0.3 mg PBZ per injection site): 5
Dizziness, % of patients ([2]; 1 mg PBZ per injection site): 13%
Dizziness, number of patients ([2]; 1 mg PBZ per injection site): 11
Ecchymosis, % of patients ([2]; 1 mg PBZ per injection site): 1 (1%)
Ecchymosis, number of patients ([2]; 1 mg PBZ per injection site): 1 (1%)
Flu syndrome, % of patients ([2]; 1 mg PBZ per injection site): 3 (3%)
Flu syndrome, number of patients ([2]; 1 mg PBZ per injection site): 3 (3%)
Headache, % of patients ([2]; 1 mg PBZ per injection site): 6%
Headache, number of patients ([2]; 1 mg PBZ per injection site): 5
Hypotension, % of patients ([2]; 1 mg PBZ per injection site): 2 (2%)
Hypotension, number of patients ([2]; 1 mg PBZ per injection site): 2 (2%)
Infection, % of patients ([2]; 1 mg PBZ per injection site): 2 (2%)
Infection, number of patients ([2]; 1 mg PBZ per injection site): 2 (2%)
Injection site edema, % of patients ([2]; 1 mg PBZ per injection site): 2 (2%)
Injection site edema, number of patients ([2]; 1 mg PBZ per injection site): 2 (2%)
Nausea, % of patients ([2]; 1 mg PBZ per injection site): 1 (1%)
Nausea, number of patients ([2]; 1 mg PBZ per injection site): 1 (1%)
Pain, % of patients ([2]; 1 mg PBZ per injection site): 8%
Pain, number of patients ([2]; 1 mg PBZ per injection site): 7
Sweating, % of patients ([2]; 1 mg PBZ per injection site): 3 (3%)
Sweating, number of patients ([2]; 1 mg PBZ per injection site): 3 (3%)
Syncope, % of patients ([2]; 1 mg PBZ per injection site): 2 (2%)
Syncope, number of patients ([2]; 1 mg PBZ per injection site): 2 (2%)
TOTAL NUMBER OF PATIENTS reporting treatment-emergent adverse experiences, % of patients [2, 4]: 41%
TOTAL NUMBER OF PATIENTS reporting treatment-emergent adverse experiences, number [2, 4]: 35
Dizziness, % of patients ([2]; 2.4 mg PBZ per injection site): (10%)
Dizziness, number of patients ([2]; 2.4 mg PBZ per injection site): 8
Ecchymosis, % of patients ([2]; 2.4 mg PBZ per injection site): 1 (1%)
Ecchymosis, number of patients ([2]; 2.4 mg PBZ per injection site): 1 (1%)
Flu syndrome, % of patients ([2]; 2.4 mg PBZ per injection site): 1 (1%)
Flu syndrome, number of patients ([2]; 2.4 mg PBZ per injection site): 1 (1%)
Headache, % of patients ([2]; 2.4 mg PBZ per injection site): 0 (0%)
Headache, number of patients ([2]; 2.4 mg PBZ per injection site): 0 (0%)
Hypotension, % of patients ([2]; 2.4 mg PBZ per injection site): 1 (1%)
Hypotension, number of patients ([2]; 2.4 mg PBZ per injection site): 1 (1%)
Infection, % of patients ([2]; 2.4 mg PBZ per injection site): 1 (1%)
Infection, number of patients ([2]; 2.4 mg PBZ per injection site): 1 (1%)
Injection site edema, % of patients ([2]; 2.4 mg PBZ per injection site): 9%
Injection site edema, number of patients ([2]; 2.4 mg PBZ per injection site): 7
Nausea, % of patients ([2]; 2.4 mg PBZ per injection site): 5%
Nausea, number of patients ([2]; 2.4 mg PBZ per injection site): 4
Pain, % of patients ([2]; 2.4 mg PBZ per injection site): 6%
Pain, number of patients ([2]; 2.4 mg PBZ per injection site): 5
Sweating, % of patients ([2]; 2.4 mg PBZ per injection site): 6%
Sweating, number of patients ([2]; 2.4 mg PBZ per injection site): 5
Syncope, % of patients ([2]; 2.4 mg PBZ per injection site): 1 (1%)
Syncope, number of patients ([2]; 2.4 mg PBZ per injection site): 1 (1%)
TOTAL NUMBER OF PATIENTS reporting treatment-emergent adverse experiences, number ([2]; 2.4 mg PBZ per injection site, 81 patients): 37
injection site soreness compared with placebo groups ([2]; high dose groups, first and second treatments): Significantly more patients
injection site pain, mean duration ([2]; in vivo): less than 10 days
injection site pain, severity ([2]; in vivo): mild to moderate
side effects at the injection site ([2]; low dosages): caused some adverse side effected at the injection site
pH of a 5% solution [3]: 3.25
